What is called IC50 is the concentration that inhibits the measured activity by half. As a reminder, the HC50 is the concentration giving 50% haemolysis.

SMILES strings stand for the structures.

Data on 17 molecules can be found in ChEMBL document CHEMBL4431343, “Synthesis and activity of novel homodimers of Morita-Baylis-Hillman adducts against Leishmania donovani: A twin drug approach” (Bioorg Med Chem Lett, 2016).

In data set [1] the test system is Leishmania donovani. The data set can be described thus: Antileishmanial activity against promastigote forms of Leishmania donovani MHOM/ET/1967/HU3 assessed as reduction in cell viability after 72 hrs by MTT assay. As to conditions: MHOM/ET/1967/HU3, 72 h. Type of data set: functional, organism-based. (Formazan colour is commonly taken as a measure of viable cells.)

Data set [2] relates to Leishmania donovani. Nature of the data set: Potency index, ratio of Amphotericin B IC50 to compound IC50 for promastigote forms of Leishmania donovani MHOM/ET/1967/HU3. The data set is classed as functional.
Data set [3] is described as follows: Hemolytic activity in human red blood cells. As to conditions: red blood cells (erythrocytes). Type of data set: cell-based, Erythrocyte.
Data set [4] is described as follows: Selectivity index, ratio of HC50 for human red blood cells to IC50 for promastigote forms of Leishmania donovani MHOM/ET/1967/HU3. The data set is classed as toxicity. To be noted: read-out: Selectivity Index.

Consider `C=C(C(=O)OC)C(O)c1ccccc1` (centres undefined), for which, in the data set on Leishmania donovani [1], the half-inhibitory concentration (IC50) is 953 µM. For the molecule `C=C(C(=O)OC)C(O)c1ccccc1[N+](=O)[O-]` (centres undefined), in the data set with Leishmania donovani [1], the IC50 is 690 µM. As for `C=C(C(=O)OC)C(O)c1cccc([N+](=O)[O-])c1` (centres undefined), the IC50 in the data set on Leishmania donovani [1] worked out at 161 µM. As for `C=C(C(=O)OCCOC(=O)C(=C)C(O)c1ccc(Br)cc1)C(O)c1ccc(Br)cc1` (centres undefined), in the data set on Leishmania donovani [1], the IC50 came out at 0.5 µM. Further, the “Ratio IC50” value with Leishmania donovani [2] was 1.24. This molecule also yielded an HC50 in data set [3] of more than 200 µM. The selectivity ratio in data set [4] is more than 400. Turning to `C=C(C(=O)OCCOC(=O)C(=C)C(O)c1ccc2ccccc2c1)C(O)c1ccc2ccccc2c1` (centres undefined), the IC50 with Leishmania donovani [1] was found to be 39 µM. With `C=C(C(=O)OC)C(O)c1ccc(Br)cc1` (centres undefined), the IC50 in the data set on Leishmania donovani [1] amounted to 197 µM.

On to `C=C(C(=O)OCCOC(=O)C(=C)C(O)c1ccccc1[N+](=O)[O-])C(O)c1ccccc1[N+](=O)[O-]` (centres undefined), for which the half-maximal inhibitory concentration (IC50) in the data set with Leishmania donovani [1] worked out at 24.8 µM. Same read-out and setting: to `C=C(C(=O)OC)C(O)c1ccc(Cl)cc1` (centres undefined) belongs 202 µM. Consider `C[C@@H]1[C@H](O)[C@@H](C)/C=C/C=C/C=C/C=C/C=C/C=C/C=C/[C@H](O[C@@H]2O[C@H](C)[C@@H](O)[C@H](N)[C@@H]2O)C[C@@H]2O[C@](O)(C[C@@H](O)C[C@@H](O)[C@H](O)CC[C@@H](O)C[C@@H](O)CC(=O)O[C@H]1C)C[C@H](O)[C@H]2C(=O)O` [AMPHOTERICIN B], for which the IC50 in the data set on Leishmania donovani [1] turned out to be 0.62 µM. The same molecule registered an HC50 in data set [3] of 11.6 µM. Moreover, in data set [4], the selectivity ratio worked out at 18.7.

With `C=C(C(=O)OC)C(O)c1ccc([N+](=O)[O-])cc1` (centres undefined), the concentration for half-maximal inhibition (IC50) with Leishmania donovani [1] is 165 µM. Turning to `C=C(C(=O)OCCOC(=O)C(=C)C(O)c1ccc(Cl)cc1)C(O)c1ccc(Cl)cc1` (centres undefined), the concentration for half-maximal inhibition (IC50) in the data set with Leishmania donovani [1] turned out to be 10.5 µM. This molecule gave an HC50 in data set [3] of more than 200 µM. Also, the selectivity ratio in data set [4] was more than 19.1. Consider `C=C(C(=O)OC)C(O)c1ccc(F)cc1` (centres undefined), for which, in the data set with Leishmania donovani [1], the IC50 came out at 610 µM. In the case of `C=C(C(=O)OCCOC(=O)C(=C)C(O)c1ccc(F)cc1)C(O)c1ccc(F)cc1` (centres undefined), the IC50 with Leishmania donovani [1] worked out at 42.4 µM. On the same count and under the same terms, to `C=C(C(=O)OCCOC(=O)C(=C)C(O)c1ccc([N+](=O)[O-])cc1)C(O)c1ccc([N+](=O)[O-])cc1` (centres undefined) belongs 44.6 µM; to `C=C(C(=O)OCCOC(=O)C(=C)C(O)c1cccc([N+](=O)[O-])c1)C(O)c1cccc([N+](=O)[O-])c1` (centres undefined), 43 µM; to `C=C(C(=O)OCCOC(=O)C(=C)C(O)c1ccccc1)C(O)c1ccccc1` (centres undefined), 126 µM. `C=C(C(=O)OC)C(O)c1ccc2ccccc2c1` (centres undefined): the 50% inhibitory concentration (IC50) with Leishmania donovani [1] amounted to 185 µM.
